According to ChEMBL document CHEMBL6074668 (J Med Chem, 2024):
The source made the active and inactive calls. No cut-off for these calls is given here.

Experiments:
[1] = target: Atypical chemokine receptor 3 (Homo sapiens) (UniProt P25106); assay: Agonist activity at CXCR7 receptor (unknown origin) assessed as beta arrestin2 recruitment at >=3 uM by PRESTO-Tango assay; assay type: functional; settings: filed as agonist
[2] = target: T1, 5-hydroxytryptamine receptor 3A (Homo sapiens, UniProt P46098); assay: Binding affinity to 5HT3 receptor (unknown origin) by radioligand displacement assay
T1 sequence (P46098 whole entry): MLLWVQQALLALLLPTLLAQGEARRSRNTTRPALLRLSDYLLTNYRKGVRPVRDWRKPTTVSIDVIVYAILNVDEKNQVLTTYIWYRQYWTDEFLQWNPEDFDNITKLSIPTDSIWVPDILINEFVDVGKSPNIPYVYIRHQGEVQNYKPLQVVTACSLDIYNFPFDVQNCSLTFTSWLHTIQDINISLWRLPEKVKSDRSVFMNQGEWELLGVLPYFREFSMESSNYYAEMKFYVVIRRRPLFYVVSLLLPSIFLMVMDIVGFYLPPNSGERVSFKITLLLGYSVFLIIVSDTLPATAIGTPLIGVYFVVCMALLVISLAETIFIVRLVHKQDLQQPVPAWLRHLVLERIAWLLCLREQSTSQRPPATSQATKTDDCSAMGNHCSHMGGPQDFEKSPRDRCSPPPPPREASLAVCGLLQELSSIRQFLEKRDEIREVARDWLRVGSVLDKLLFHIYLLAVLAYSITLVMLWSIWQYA

[3] = target: T2, Alpha-2A adrenergic receptor (Homo sapiens, UniProt P08913); assay: Binding affinity to alpha2A adrenergic receptor (unknown origin) by radioligand displacement assay
T2 sequence (P08913 whole entry): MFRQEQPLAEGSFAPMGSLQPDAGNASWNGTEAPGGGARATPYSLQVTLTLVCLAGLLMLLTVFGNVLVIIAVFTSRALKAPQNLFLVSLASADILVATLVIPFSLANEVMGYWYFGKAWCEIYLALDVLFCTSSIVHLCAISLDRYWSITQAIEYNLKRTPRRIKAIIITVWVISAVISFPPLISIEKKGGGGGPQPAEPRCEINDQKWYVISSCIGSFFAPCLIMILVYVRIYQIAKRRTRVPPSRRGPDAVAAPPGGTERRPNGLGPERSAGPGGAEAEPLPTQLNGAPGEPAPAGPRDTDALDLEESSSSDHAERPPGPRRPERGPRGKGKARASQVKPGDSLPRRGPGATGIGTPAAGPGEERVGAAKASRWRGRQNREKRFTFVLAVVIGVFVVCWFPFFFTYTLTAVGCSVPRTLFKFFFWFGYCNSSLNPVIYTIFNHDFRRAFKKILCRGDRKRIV

[4] = target: Kappa-type opioid receptor (Homo sapiens, UniProt P41145); assay: Displacement of [3H]U69593 from kappa opioid receptor (unknown origin) expressed in human U2OS cell membrane by competitive radioligand binding assay; assay type: cell membranes
[5] = target: 5-hydroxytryptamine receptor 2A (Homo sapiens, UniProt P28223)
[6] = target: Sodium-dependent noradrenaline transporter (Homo sapiens, UniProt P23975)

## C/C=C1/CN2CC[C@]34C(=C(C(=O)OC)[C@H]1C[C@H]23)Nc1ccc(I)cc14
[1]
  Activity: Active; Weak Activity Compared To Vuf11207
[2]
  Ki: 384 nM
[3]
  Ki: 732 nM
[4]
  Ki: 0.087 nM
[5]
  Ki: 2310 nM
[6]
  Ki: 3440 nM
